Literature values as cited in US10335411B2, “Administration of ubiquitin-activating enzyme inhibitor and radiation” (Millennium Pharmaceuticals, Inc., priority 2014, dated 2019).

Key:
[1] = system: leukemia and myeloma cell lines; details: Xu et al., 2010; cited from earlier work
[2] = system: mouse acute myeloid leukemia (AML model); details: Xu et al., 2010; cited from earlier work

For `O=C1NN(c2ccc(F)c(Cl)c2)C(=O)/C1=C\c1ccc([N+](=O)[O-])o1` [PYZD-4409], the cell death [1] is listed as “induced cell death” and the anti-tumor activity [2] is listed as “induced anti-tumor activity”.
